Results: patent US20160333006A1, “ARYL LACTA KINASE INHIBITORS” (Bristol-Myers Squibb Company, priority 2014, published 2016)

The compounds below were run against T1, GST-Xa-hAAK1 (Homo sapiens, UniProt Q2M2I8) (assay: AAK1 kinase assay). Conditions: ATP 22 μM; given as IC50 range.
T1 construct: made in house
T1 sequence (Q2M2I8 whole entry): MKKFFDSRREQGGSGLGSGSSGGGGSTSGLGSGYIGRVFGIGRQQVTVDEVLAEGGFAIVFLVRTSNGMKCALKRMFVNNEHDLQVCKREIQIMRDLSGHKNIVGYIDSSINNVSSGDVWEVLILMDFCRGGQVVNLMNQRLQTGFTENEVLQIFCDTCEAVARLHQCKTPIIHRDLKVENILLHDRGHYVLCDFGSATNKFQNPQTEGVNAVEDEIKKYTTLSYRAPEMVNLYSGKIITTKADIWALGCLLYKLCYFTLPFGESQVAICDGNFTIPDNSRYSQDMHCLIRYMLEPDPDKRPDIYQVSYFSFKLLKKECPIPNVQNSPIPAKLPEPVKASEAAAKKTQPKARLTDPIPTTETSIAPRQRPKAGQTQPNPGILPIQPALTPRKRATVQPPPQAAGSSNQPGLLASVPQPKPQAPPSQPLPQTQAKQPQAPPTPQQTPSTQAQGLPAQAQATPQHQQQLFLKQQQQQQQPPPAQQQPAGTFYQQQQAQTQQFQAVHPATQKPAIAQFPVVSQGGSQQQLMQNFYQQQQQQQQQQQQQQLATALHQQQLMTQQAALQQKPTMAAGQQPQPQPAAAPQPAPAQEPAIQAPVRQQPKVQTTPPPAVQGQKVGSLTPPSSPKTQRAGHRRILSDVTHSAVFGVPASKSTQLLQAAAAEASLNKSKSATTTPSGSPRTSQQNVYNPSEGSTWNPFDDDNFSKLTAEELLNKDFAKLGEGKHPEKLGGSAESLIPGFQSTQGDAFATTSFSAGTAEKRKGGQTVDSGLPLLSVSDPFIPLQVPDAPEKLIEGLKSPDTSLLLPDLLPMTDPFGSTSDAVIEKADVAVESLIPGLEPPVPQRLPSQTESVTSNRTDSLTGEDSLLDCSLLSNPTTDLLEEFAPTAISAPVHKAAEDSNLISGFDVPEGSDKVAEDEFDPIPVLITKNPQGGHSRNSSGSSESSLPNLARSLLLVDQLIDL
Assay type: biochemical
Procedure: The assays were performed in U-bottom 384-well plates. […] The reactions were initiated by the combination of bacterially expressed, GST-Xa-hAAK1 with substrates and test compounds. The reactions were incubated at room temperature for 3 hours and terminated by adding 60 μl of 35 mM EDTA buffer to each sample. The reactions were analyzed on the Caliper LabChip 3000 (Caliper, Hopkinton, Mass.) by electrophoretic separation of the fluorescent substrate and phosphorylated product. […] Compounds were dissolved at 10 mM in dimethylsulfoxide (DMSO) and evaluated at eleven concentrations. IC50 values were derived by non-linear regression analysis.
`Cc1nccc2c1c(=O)n(C)c1cc(OCC(N)CC(C)C(F)(F)F)ccc21` (single isomer, unassigned) [Example 87] was tested, and the IC50 was 1 to 10 nM.
`Cc1nccc2c1c(=O)n(C)c1cc(OCC(N)CC(C)C(F)(F)F)ccc21` (single isomer, unassigned) [Example 88] gave an IC50 of 1 to 10 nM.
`Cn1c(=O)c2cnccc2c2ccc(OCC(N)CC(F)(F)F)cc21` (single isomer, unassigned) [Example 135, 8-(2-amino-4,4,4-trifluorobutoxy)-6-methylbenzo[c][2,7]naphthyridin-5(6H)-one] showed an IC50 of 10 to 100 nM.
Work on `Cn1c(=O)c2cnccc2c2ccc(OCC(N)CC(F)(F)F)cc21` (single isomer, unassigned) [Example 136, 8-(2-amino-4,4,4-trifluorobutoxy)-6-methylbenzo[c][2,7]naphthyridin-5(6H)-one] yielded an IC50 of 1 to 10 nM.
`Cc1cc2c3ccncc3c(=O)n(C)c2cc1OC[C@@H](N)CC(C)C` [Example 4, (S)-8-((2-amino-4-methylpentyl)oxy)-6,9-dimethylbenzo[c][2,7]naphthyridin-5(6H)-one] was tested, and the IC50 was 1 to 10 nM.
`CC(C)C[C@H](N)COc1cc2c(cc1C#N)c1ccncc1c(=O)n2C` [Example 5, (S)-8-((2-amino-4-methylpentyl)oxy)-6-methyl-5-oxo-5,6 dihydrobenzo[c][2,7]naphthyridine-9-carbonitrile] showed an IC50 of 1 to 10 nM.
`CC(C)C[C@H](N)COc1c(Cl)cc2c3ccncc3c(=O)n(C)c2c1Cl` [Example 10, (S)-8-((2-amino-4-methylpentyl)oxy)-7,9-dichloro-6-methylbenzo[c][2,7]naphthyridin-5(6H) one] gave an IC50 of 10 to 100 nM.
For `Cc1nccc2c1c(=O)n(C)c1cc(OC[C@@H](N)CC(C)C)c(C(F)F)cc21` [Example 27, (S)-8-((2-amino-4-methylpentyl)oxy)-9-(difluoromethyl)-4,6-dimethylbenzo[c][2,7]naphthyridin-5(6H)-one], the IC50 was under 1 nM.
Compound `CC(C)C[C@@H](COc1ccc2c3ccncc3c(=O)n(C)c2c1)N(C)C` [Example 39, (S)-8-((2-(dimethylamino)-4-methylpentyl)oxy)-6-methylbenzo[c][2,7]naphthyridin-5(6H)-one] has an IC50 of 10 to 100 nM.
For `COc1nccc2c1c(=O)n(C)c1cc(OC[C@@H](N)CC(C)C)ccc21` [Example 42, (S)-8-(2-amino-4-methylpentyloxy)-4-methoxy-6-methylbenzo[c][2,7]naphthyridin-5(6H)-one], the IC50 was 100 to 2000 nM.
With `CC(C)C[C@H](N)COc1cc2c(cc1Cl)c1ccncc1c(=O)n2C` [Example 43, (S)-8-((2-amino-4-methylpentyl)oxy)-9-chloro-6-methylbenzo[c][2,7]naphthyridin-5(6H)-one] the IC50 was 1 to 10 nM.
Work on `Cc1nccc2c1c(=O)[nH]c1cc(OC[C@@H](N)CC(C)C)c(Br)cc12` [Example 49, (S)-8-(2-amino-4-methylpentyloxy)-9-bromo-4-methylbenzo[c][2,7]naphthyridin-5(6H)-one] yielded an IC50 of 1 to 10 nM.
`CC(C)C[C@H](N)COc1cc2c(cc1-c1ccc(F)cc1)c1ccncc1c(=O)n2C` [Example 51, (S)-8-((2-amino-4-methylpentyl)oxy)-9-(4-fluorophenyl)-6 methylbenzo[c][2,7]naphthyridin-5(6H)-one] gave an IC50 of 100 to 2000 nM.
Work on `CN[C@H](COc1cc2c(cc1C#N)c1ccnc(C)c1c(=O)n2C)CC(C)C` [Example 65, (S)-4,6-dimethyl-8-(4-methyl-2-(methylamino)pentyloxy)-5-oxo-5,6-dihydrobenzo[c][2,7]naphthyridine-9-carbonitrile] yielded an IC50 of under 1 nM.
In the case of `Cc1nccc2c1c(=O)[nH]c1cc(OC[C@@H](N)CC(C)C)ccc12` [Example 77, (S)-8-(2-amino-4-methylpentyloxy)-4-methylbenzo[c][2,7]naphthyridin-5(6H)-one], the IC50 is reported as 1 to 10 nM.
For `COCCn1c(=O)c2c(C)nccc2c2cc(Cl)c(OC[C@@H](N)CC(C)C)cc21` [Example 79, (S)-8-((2-amino-4-methylpentyl)oxy)-9-chloro-6-(2-methoxyethyl)-4-methylbenzo[c][2,7]naphthyridin-5(6H)-one], the IC50 was 1 to 10 nM.
In the case of `Cc1nccc2c1c(=O)n(C)c1c(F)c(OC[C@@H](N)CC(C)C)ccc21` [Example 81, (S)-8-(2-amino-4-methylpentyloxy)-7-fluoro-4,6-dimethylbenzo[c][2,7]naphthyridin-5(6H)-one], the IC50 is reported as 100 to 2000 nM.
Compound `COC(=O)c1cc2c3ccnc(C)c3c(=O)n(C)c2cc1OC[C@@H](N)CC(C)C` [Example 84, (S)-methyl 8-((2-amino-4-methylpentyl)oxy)-4,6-dimethyl-5-oxo-5,6-dihydrobenzo[c][2,7]naphthyridine-9-carboxylate] has an IC50 of 1 to 10 nM.
In the case of `CC(C)C[C@H](N)COc1ccc2c3c(F)cncc3c(=O)n(C)c2c1` [Example 85, (S)-8-((2-amino-4-methylpentyl)oxy)-1-fluoro-6-methylbenzo[c][2,7]naphthyridin-5(6H)-one], the IC50 is reported as 10 to 100 nM.
`Cc1nccc2c1c(=O)n(C)c1cc(OC[C@@H](N)CC(C)C)c(C(N)=O)cc21` [Example 94, (S)-8-((2-amino-4-methylpentyl)oxy)-4,6-dimethyl-5-oxo-5,6-dihydrobenzo[c][2,7]naphthyridine-9-carboxamide] was tested, and the IC50 was 10 to 100 nM.
In the case of `COc1cncc2c(=O)n(C)c3cc(OC[C@@H](N)CC(C)C)ccc3c12` [Example 98, (S)-8-((2-amino-4-methylpentyl)oxy)-1-methoxy-6-methylbenzo[c][2,7]naphthyridin-5(6H)-one], the IC50 is reported as 100 to 2000 nM.
With `COc1c(OC[C@@H](N)CC(C)C)ccc2c1[nH]c(=O)c1c(C)nccc12` [Example 99, (S)-8-(2-amino-4-methylpentyloxy)-7-methoxy-4-methylbenzo[c][2,7]naphthyridin-5(6H)-one] the IC50 was 100 to 2000 nM.
In the case of `COCc1cc2c3ccnc(C)c3c(=O)n(C)c2cc1OC[C@@H](N)CC(C)C` [Example 104, (S)-8-(2-amino-4-methylpentyloxy)-9-(methoxymethyl)-4,6-dimethylbenzo[c][2,7]naphthyridin-5(6H)-one], the IC50 is reported as 10 to 100 nM.
With `Cc1nccc2c1c(=O)n(C)c1c(F)c(OC[C@@H](N)CC(C)C)c(Cl)cc21` [Example 107, (S)-8-((2-amino-4-methylpentyl)oxy)-9-chloro-7-fluoro-4,6-dimethylbenzo[c][2,7]naphthyridin-5(6H)-one] the IC50 was 1 to 10 nM.
With `CC(C)Cc1cc2c3ccncc3c(=O)n(C)c2cc1OC[C@@H](N)CC(C)C` [Example 110, (S)-8-((2-amino-4-methylpentyl)oxy)-9-isobutyl-6-methylbenzo[c][2,7]naphthyridin-5(6H)-one] the IC50 was 10 to 100 nM.
In the case of `Cn1c(=O)c2cnccc2c2ccc(OCC(N)CCC(F)(F)F)cc21` (centres unmarked) [Example 111, 8-((2-amino-5,5,5-trifluoropentyl)oxy)-6-methylbenzo[c][2,7]naphthyridin-5(6H)-one], the IC50 is reported as 1 to 10 nM.
`Cn1c(=O)c2cnccc2c2ccc(OCC(N)CCC(F)(F)F)cc21` (centres unmarked) [Example 112, 8-((2-amino-5,5,5-trifluoropentyl)oxy)-6-methylbenzo[c][2,7]naphthyridin-5(6H)-one] was tested, and the IC50 was 1 to 10 nM.
`Cc1nccc2c1c(=O)n(C)c1cc(OCC(N)CCC(F)(F)F)ccc21` (centres unmarked) [Example 123, 8-((2-amino-5,5,5-trifluoropentyl)oxy)-4,6-dimethylbenzo[c][2,7]naphthyridin-5(6H)-one] gave an IC50 of 10 to 100 nM.
In the case of `Cc1nccc2c1c(=O)n(C)c1cc(OCC(N)CCC(F)(F)F)c(Cl)cc21` (centres unmarked) [Example 124, 8-((2-amino-5,5,5-trifluoropentyl)oxy)-9-chloro-4,6-dimethylbenzo[c][2,7]naphthyridin-5(6H)-one], the IC50 is reported as under 1 nM.
